Patent US9932381B2, “Exendin-4 derivatives as selective glucagon receptor agonists” (priority 2014, dated 2018)
pEC50: −log10 of the molar value. Non-standard residues stand in square brackets, D forms with d. Residues, ends and D or L forms follow the SMILES beside them. Ala(4-thiazolyl) = N[C@@H](Cc1cscn1)C(=O)O; Chg = N[C@H](C(=O)O)C1CCCCC1; Tle = CC(C)(C)[C@H](N)C(=O)O; Nle = CCCC[C@H](N)C(=O)O

Tests used:
[1] = Solubility testing of exendin-4 derivatives (HPLC-UV of supernatant); format: physicochemical; conditions: pH 7.4
Description: Prior to the testing of solubility and stability of a peptide batch, its content was determined. Therefore, two parameters were investigated, its purity (HPLC-UV) and the amount of salt load of the batch (ion chromatography).
HPLC-UV was performed after 2 h of gentle agitation from the supernatant, which was obtained by 20 min of centrifugation at 4000 rpm.

[2] = biological target: T1, human GLP-1 receptor (hGLP-1 R) (Homo sapiens, UniProt P43220); test: cAMP response (HTRF) of HEK-293 cells stably expressing human GLP-1 receptor; format: cell-based; conditions: Table 4
T1 construct: expressed in transfected cells; host or cells: HEK-293
T1 sequence (P43220 24-463): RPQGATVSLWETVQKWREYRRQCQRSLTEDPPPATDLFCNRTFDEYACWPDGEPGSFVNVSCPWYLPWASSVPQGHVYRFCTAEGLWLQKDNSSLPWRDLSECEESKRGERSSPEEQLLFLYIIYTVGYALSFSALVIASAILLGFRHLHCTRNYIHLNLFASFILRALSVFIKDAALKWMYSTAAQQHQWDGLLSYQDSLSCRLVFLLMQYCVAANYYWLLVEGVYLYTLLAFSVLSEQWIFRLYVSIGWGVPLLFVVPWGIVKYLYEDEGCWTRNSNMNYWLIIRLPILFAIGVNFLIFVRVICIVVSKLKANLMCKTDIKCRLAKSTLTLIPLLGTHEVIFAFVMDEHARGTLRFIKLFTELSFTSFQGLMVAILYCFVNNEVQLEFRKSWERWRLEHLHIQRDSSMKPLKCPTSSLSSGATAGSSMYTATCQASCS
Description: (§1) cAMP content of cells was determined using a kit from Cisbio Corp. (cat. no. 62AM4PEC) based on HTRF (Homogenous Time Resolved Fluorescence). For preparation, cells were split into T175 culture flasks and grown overnight to near confluency in medium (DMEM/10% FBS). Medium was then removed and cells washed with PBS lacking calcium and magnesium, followed by proteinase treatment with accutase (Sigma-Aldrich cat. no. A6964). Detached cells were washed and resuspended in assay buffer (1×HBSS; 20 mM HEPES, 0.1% BSA, 2 mM IBMX) and cellular density determined. They were then diluted to 400000 cells/ml and 25 μl-aliquots dispensed into the wells of 96-well plates. For measurement, 25 μl of test compound in assay buffer was added to the wells, followed by incubation for 30 minutes at room temperature. After addition of HTRF reagents diluted in lysis buffer (kit components), the plates were incubated for 1 hr, followed by measurement of the fluorescence ratio at 665/620 nm. In vitro potency of agonists was quantified by determining the concentrations that caused 50% activation of maximal response (EC50).

[3] = biological target: T2, human glucagon receptor (hGLUC R) (Homo sapiens, UniProt P47871); test: cAMP response (HTRF) of HEK-293 cells stably expressing human glucagon receptor; format: cell-based; conditions: Table 4; read-out: EC50 hGLUC R
T2 construct: expressed in transfected cells; host or cells: HEK-293
T2 sequence (P47871 26-477): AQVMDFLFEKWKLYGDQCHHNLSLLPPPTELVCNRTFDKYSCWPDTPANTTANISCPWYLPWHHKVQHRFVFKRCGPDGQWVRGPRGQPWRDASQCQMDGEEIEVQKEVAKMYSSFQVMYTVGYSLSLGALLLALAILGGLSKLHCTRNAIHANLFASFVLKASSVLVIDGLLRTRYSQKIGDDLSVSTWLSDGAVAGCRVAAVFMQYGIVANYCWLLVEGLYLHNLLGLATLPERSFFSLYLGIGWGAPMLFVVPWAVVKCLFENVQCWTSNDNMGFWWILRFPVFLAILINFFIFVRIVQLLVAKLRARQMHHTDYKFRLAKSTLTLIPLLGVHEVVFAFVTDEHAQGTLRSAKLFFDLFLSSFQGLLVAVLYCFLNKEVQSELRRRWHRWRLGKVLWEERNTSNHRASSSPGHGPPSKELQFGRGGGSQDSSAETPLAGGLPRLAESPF
Description: as §1, with “temperature.” for “temperature. After addition of HTRF reagents diluted in lysis buffer (kit components), the plates were incubated for 1 hr, followed by measurement of the fluorescence ratio at 665/620 nm. In vitro potency of agonists was quantified by determining the concentrations that caused 50% activation of maximal response (EC50).”

Structure (SMILES)	solubility at 2 h [1]	also measured
CC[C@H](C)[C@H](NC(=O)[C@H](Cc1ccccc1)NC(=O)[C@H](CC(=O)O)NC(=O)[C@H](CCC(N)=O)NC(=O)[C@H](C)NC(=O)[C@H](CCCNC(=N)N)NC(=O)[C@H](CCCNC(=N)N)NC(=O)[C@H](CO)NC(=O)[C@H](CCC(=O)O)NC(=O)[C@H](CC(C)C)NC(=O)[C@H](CCC(N)=O)NC(=O)[C@H](CCCCN)NC(=O)[C@H](CO)NC(=O)[C@@H](NC(=O)[C@H](CC(=O)O)NC(=O)[C@H](CO)NC(=O)[C@@H](NC(=O)[C@H](Cc1ccccc1)NC(=O)[C@@H](NC(=O)CNC(=O)[C@H](CCC(N)=O)NC(=O)[C@H](CO)NC(=O)[C@@H](N)Cc1cscn1)[C@@H](C)O)[C@@H](C)O)C1CCCCC1)C(=O)N[C@@H](CCC(=O)O)C(=O)N[C@@H](Cc1c[nH]c2ccccc12)C(=O)N[C@@H](CC(C)C)C(=O)N[C@@H](CC(C)C)C(=O)N[C@@H](C)C(=O)N[C@H](C(=O)NCC(=O)N1CCC[C@H]1C(=O)N[C@@H](CCC(=O)O)C(=O)N[C@@H](CO)C(=O)NCC(=O)N[C@@H](C)C(=O)N1CCC[C@H]1C(=O)N1CCC[C@H]1C(=O)N1CCC[C@H]1C(=O)N[C@@H](CO)C(=O)O)[C@@H](C)O [SEQ ID NO 23, Tza-S-Q-G-T-F-T-S-D-Chg-SKQLESRRAQDFIEWLLATGPESGAPPPS-OH] (H-[Ala(4-thiazolyl)]SQGTFTSD[Chg]SKQLESRRAQDFIEWLLATGPESGAPPPS-OH; N-terminus assumed)	> 10000 µg/mL	–
CCCC[C@H](NC(=O)[C@H](CCC(N)=O)NC(=O)[C@H](CCCCN)NC(=O)[C@H](CO)NC(=O)[C@@H](NC(=O)[C@H](CC(=O)O)NC(=O)[C@H](CO)NC(=O)[C@@H](NC(=O)[C@H](Cc1ccccc1)NC(=O)[C@@H](NC(=O)CNC(=O)[C@H](CCC(N)=O)NC(=O)[C@H](CO)NC(=O)[C@@H](N)Cc1cscn1)[C@@H](C)O)[C@@H](C)O)C1CCCCC1)C(=O)N[C@@H](CCC(=O)O)C(=O)N[C@@H](CO)C(=O)N[C@@H](CCCNC(=N)N)C(=O)N[C@@H](CCCNC(=N)N)C(=O)N[C@@H](C)C(=O)N[C@@H](CCC(N)=O)C(=O)N[C@@H](CC(=O)O)C(=O)N[C@@H](Cc1ccccc1)C(=O)N[C@H](C(=O)N[C@@H](CCC(=O)O)C(=O)N[C@@H](Cc1c[nH]c2ccccc12)C(=O)N[C@@H](CC(C)C)C(=O)N[C@@H](CC(C)C)C(=O)N[C@@H](C)C(=O)N[C@H](C(=O)NCC(=O)N1CCC[C@H]1C(=O)N[C@@H](CCC(=O)O)C(=O)N[C@@H](CO)C(=O)NCC(=O)N[C@@H](C)C(=O)N1CCC[C@H]1C(=O)N1CCC[C@H]1C(=O)N1CCC[C@H]1C(=O)N[C@@H](CO)C(=O)O)[C@@H](C)O)[C@@H](C)CC [SEQ ID NO 20, Tza-S-Q-G-T-F-T-S-D-Chg-S-K-Q-Nle-ESRRAQDFIEWLLATGPESGAPPPS-OH] (H-[Ala(4-thiazolyl)]SQGTFTSD[Chg]SKQ[Nle]ESRRAQDFIEWLLATGPESGAPPPS-OH; N-terminus assumed)	–	Solubility (pH7.4) [mg/ml] ([1]; 2 h): >10.0 mg/ml
CC[C@H](C)[C@H](NC(=O)[C@H](Cc1ccccc1)NC(=O)[C@H](CCC(=O)O)NC(=O)[C@H](CCC(N)=O)NC(=O)[C@H](C)NC(=O)[C@H](CCCNC(=N)N)NC(=O)[C@H](CCCNC(=N)N)NC(=O)[C@H](CO)NC(=O)[C@H](CCC(=O)O)NC(=O)[C@H](CC(C)C)NC(=O)[C@H](CCC(N)=O)NC(=O)[C@H](CCCCN)NC(=O)[C@H](CO)NC(=O)[C@H](CC(C)C)NC(=O)[C@H](CC(=O)O)NC(=O)[C@H](CO)NC(=O)[C@@H](NC(=O)[C@H](Cc1ccccc1)NC(=O)[C@@H](NC(=O)CNC(=O)[C@H](CCC(N)=O)NC(=O)[C@H](CO)NC(=O)[C@@H](N)Cc1cscn1)[C@@H](C)O)[C@@H](C)O)C(=O)N[C@@H](CCC(=O)O)C(=O)N[C@@H](Cc1c[nH]c2ccccc12)C(=O)N[C@@H](CC(C)C)C(=O)N[C@@H](CC(C)C)C(=O)N[C@@H](C)C(=O)N[C@H](C(=O)NCC(=O)N1CCC[C@H]1C(=O)N[C@@H](CCC(=O)O)C(=O)N[C@@H](CO)C(=O)NCC(=O)N[C@@H](C)C(=O)N1CCC[C@H]1C(=O)N1CCC[C@H]1C(=O)N1CCC[C@H]1C(=O)N[C@@H](CO)C(=O)O)[C@@H](C)O [SEQ ID NO 12, Tza-SQGTFTSDLSKQLESRRAQEFIEWLLATGPESGAPPPS-OH] (H-[Ala(4-thiazolyl)]SQGTFTSDLSKQLESRRAQEFIEWLLATGPESGAPPPS-OH)	–	pEC50 [2]: 7.70; pEC50 [3]: 12.00

Now from value to compound, other results behind:

solubility at 2 h [1]	Structure (SMILES)	also measured
> 10000 µg/mL	CCCC[C@H](NC(=O)[C@H](CCC(N)=O)NC(=O)[C@H](CCCCN)NC(=O)[C@H](CO)NC(=O)[C@@H](NC(=O)[C@H](CC(=O)O)NC(=O)[C@H](CO)NC(=O)[C@@H](NC(=O)[C@H](Cc1ccccc1)NC(=O)[C@@H](NC(=O)CNC(=O)[C@H](CCC(N)=O)NC(=O)[C@H](CO)NC(=O)[C@@H](N)Cc1cscn1)[C@@H](C)O)[C@@H](C)O)C(C)(C)C)C(=O)N[C@@H](CCC(=O)O)C(=O)N[C@@H](CO)C(=O)N[C@@H](CCCNC(=N)N)C(=O)N[C@@H](CCCNC(=N)N)C(=O)N[C@@H](C)C(=O)N[C@@H](CCC(N)=O)C(=O)N[C@@H](CCC(=O)O)C(=O)N[C@@H](Cc1ccccc1)C(=O)N[C@H](C(=O)N[C@@H](CCC(=O)O)C(=O)N[C@@H](Cc1c[nH]c2ccccc12)C(=O)N[C@@H](CC(C)C)C(=O)N[C@@H](CC(C)C)C(=O)N[C@@H](C)C(=O)N[C@H](C(=O)NCC(=O)N1CCC[C@H]1C(=O)N[C@@H](CCC(=O)O)C(=O)N[C@@H](CO)C(=O)NCC(=O)N[C@@H](C)C(=O)N1CCC[C@H]1C(=O)N1CCC[C@H]1C(=O)N1CCC[C@H]1C(=O)N[C@@H](CO)C(=O)O)[C@@H](C)O)[C@@H](C)CC [SEQ ID NO 25, Tza-S-Q-G-T-F-T-S-D-Tle-S-K-Q-Nle-ESRRAQEFIEWLLATGPESGAPPPS-OH] (H-[Ala(4-thiazolyl)]SQGTFTSD[Tle]SKQ[Nle]ESRRAQEFIEWLLATGPESGAPPPS-OH; N-terminus assumed)	–
> 10000 µg/mL	CCCC[C@H](NC(=O)[C@H](CCC(N)=O)NC(=O)[C@H](CCCCN)NC(=O)[C@H](CO)NC(=O)[C@@H](NC(=O)[C@H](CC(=O)O)NC(=O)[C@H](CO)NC(=O)[C@@H](NC(=O)[C@H](Cc1ccccc1)NC(=O)[C@@H](NC(=O)CNC(=O)[C@H](CCC(N)=O)NC(=O)[C@H](CO)NC(=O)[C@@H](N)Cc1cscn1)[C@@H](C)O)[C@@H](C)O)C1CCCCC1)C(=O)N[C@@H](CCC(=O)O)C(=O)N[C@@H](CO)C(=O)N[C@@H](CCCNC(=N)N)C(=O)N[C@@H](CCCNC(=N)N)C(=O)N[C@@H](C)C(=O)N[C@@H](CCC(N)=O)C(=O)N[C@@H](CCC(=O)O)C(=O)N[C@@H](Cc1ccccc1)C(=O)N[C@H](C(=O)N[C@@H](CCC(=O)O)C(=O)N[C@@H](Cc1c[nH]c2ccccc12)C(=O)N[C@@H](CC(C)C)C(=O)N[C@@H](CC(C)C)C(=O)N[C@@H](C)C(=O)N[C@H](C(=O)NCC(=O)N1CCC[C@H]1C(=O)N[C@@H](CCC(=O)O)C(=O)N[C@@H](CO)C(=O)NCC(=O)N[C@@H](C)C(=O)N1CCC[C@H]1C(=O)N1CCC[C@H]1C(=O)N1CCC[C@H]1C(=O)N[C@@H](CO)C(=O)O)[C@@H](C)O)[C@@H](C)CC [SEQ ID NO 24, Tza-S-Q-G-T-F-T-S-D-Chg-S-K-Q-Nle-ESRRAQEFIEWLLATGPESGAPPPS-OH] (H-[Ala(4-thiazolyl)]SQGTFTSD[Chg]SKQ[Nle]ESRRAQEFIEWLLATGPESGAPPPS-OH)	–
